In patent publication US6737383B1, “Herbicidal oxadiazolidines” (priority 1999, dated 2004):

Columns and labels:
morningglory = assay: Test B pre/postemergence morningglory; type: in vivo, Ipomoea hederacea; conditions: for Plant response rating, Morningglory: scale of 0 to 10 where 0 is no effect and 10 is complete control
Outline: (§1)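 Test chemicals in a non-phytotoxic solvent mixture with surfactant were sprayed preemergence onto planted seeds and postemergence onto plants 2 to 18 cm tall (1- to 4-leaf stage). After twelve to sixteen days in a greenhouse, injury was visually rated against untreated controls from 0 (no effect) to 10 (complete control).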

bedstraw = assay: Test B pre/postemergence bedstraw; type: in vivo, Galium aparine; conditions: Postemergence, scale 0 to 10 (0 no effect, 10 complete control)
Outline: as §1

crabgrass = assay: Test B pre/postemergence crabgrass; type: in vivo, Digitaria sanguinalis; conditions: for Plant response rating, Crabgrass: scale of 0 to 10 where 0 is no effect and 10 is complete control
Outline: as §1

duck salad = assay: Test B flood test duck salad; type: in vivo, Heteranthera limosa
Outline: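 Read-out is a visual response score from 0 (no effect) to 10 (complete control), assigned by comparison with untreated controls. Treatment was applied at the 2-leaf stage, and plants stayed in the greenhouse for twelve to sixteen days before scoring.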

cocklebur = assay: Test B pre/postemergence cocklebur; type: in vivo, Xanthium strumarium; conditions: for Plant response rating, Cocklebur: scale of 0 to 10 where 0 is no effect and 10 is complete control
Outline: as §1

pigweed = assay: Test B pre/postemergence pigweed; type: in vivo, Amaranthus retroflexus; conditions: for Plant response rating, Redroot pigweed: scale of 0 to 10 where 0 is no effect and 10 is complete control
Outline: as §1

sugar beet = assay: Test B pre/postemergence sugar beet; type: in vivo, Beta vulgaris; conditions: for Plant response rating, Sugarbeets: scale of 0 to 10 where 0 is no effect and 10 is complete control
Outline: as §1

corn = assay: Test B pre/postemergence corn; type: in vivo, Zea mays; conditions: for Plant response rating, Corn: scale of 0 to 10 where 0 is no effect and 10 is complete control
Outline: as §1

giant foxtail = assay: Test B pre/postemergence giant foxtail; type: in vivo, Setaria faberii; conditions: for Plant response rating, Giant foxtail: scale of 0 to 10 where 0 is no effect and 10 is complete control
Outline: as §1

wheat = assay: Test B pre/postemergence wheat; type: in vivo, Triticum aestivum; conditions: for Plant response rating, Wheat: scale of 0 to 10 where 0 is no effect and 10 is complete control
Outline: as §1

rape = assay: Test B pre/postemergence rape; type: in vivo, Brassica napus; conditions: for Plant response rating, Rape: scale of 0 to 10 where 0 is no effect and 10 is complete control
Outline: as §1

velvetleaf = assay: Test B pre/postemergence velvetleaf; type: in vivo, Abutilon theophrasti; conditions: for Plant response rating, Velvetleaf: scale of 0 to 10 where 0 is no effect and 10 is complete control
Outline: as §1

surinam grass = assay: Test B pre/postemergence surinam grass; type: in vivo, Brachiaria decumbens; conditions: for Plant response rating, B. signalgrass: scale of 0 to 10 where 0 is no effect and 10 is complete control
Outline: as §1

purple nutsedge = assay: Test B pre/postemergence purple nutsedge; type: in vivo, Cyperus rotundus; conditions: for Plant response rating, Nutsedge: scale of 0 to 10 where 0 is no effect and 10 is complete control
Outline: as §1

soybean = assay: Test B pre/postemergence soybean; type: in vivo, Glycine max; conditions: for Plant response rating, Soybean: scale of 0 to 10 where 0 is no effect and 10 is complete control
Outline: as §1

[1] = Postemergence, Rate 31 g/ha, visual rating, scale 0 to 10 (0 no effect, 10 complete control)
[2] = Postemergence, Rate 250 g/ha, scale 0 to 10
[3] = Preemergence, Rate 250 g/ha, scale 0 to 10, 0 is no effect, 10 is complete control
[4] = Rate 62 g/ha, Postemergence, scale 0 to 10 (0 no effect, 10 complete control)
[5] = Rate 125 g/ha, Postemergence, scale 0 to 10, 0 is no effect, 10 is complete control
[6] = Preemergence, Rate 31 g/ha, visual rating, scale 0 to 10 (0 no effect, 10 complete control)

## Cc1nc(C)c(C(C)n2c(=O)on(C(=O)N(c3ccccc3)C(C)C)c2=O)s1 (stereo not drawn) [Compound 442]
morningglory; [1]
  Morningglory plant response rating: 1
morningglory; [2]
  Morningglory plant response rating: 7
morningglory; Preemergence, Rate 62 g/ha
  Plant response rating, Morningglory: 0
morningglory; Preemergence, Rate 125 g/ha
  Plant response rating, Morningglory: 0
morningglory; [3]
  Morningglory plant response rating: 0
morningglory; [4]
  Morningglory plant response rating: 4
morningglory; [5]
  Morningglory plant response rating: 4
bedstraw; Rate 31 g/ha, visual rating
  Bedstraw plant response rating: 0
bedstraw; Rate 62 g/ha
  Bedstraw plant response rating: 0
crabgrass; [1]
  Crabgrass plant response rating: 0
crabgrass; [2]
  Crabgrass plant response rating: 0
crabgrass; [6]
  Crabgrass plant response rating: 5
crabgrass; Preemergence, Rate 62 g/ha
  Plant response rating, Crabgrass: 7
crabgrass; Preemergence, Rate 125 g/ha
  Plant response rating, Crabgrass: 8
crabgrass; [3]
  Crabgrass plant response rating: 8
crabgrass; [4]
  Crabgrass plant response rating: 0
crabgrass; [5]
  Crabgrass plant response rating: 0
Duck salad; Rate 31 g/ha, Pre-emergence section (flood test species), scale 0 to 10
  Ducksalad plant response rating: 0
Duck salad; Rate 62 g/ha, flood test species, Pre-emergence, visual evaluation after twelve to sixteen days
  Plant response rating, Ducksalad (0 to 10 scale, 0 is no effect, 10 is complete control): 0
Duck salad; Rate 125 g/ha, under heading Pre-emergence, flood test species, visual evaluation after twelve to sixteen days
  Ducksalad plant response rating (0 to 10 scale, 0 is no effect, 10 is complete control): 0
Duck salad; Rate 250 g/ha, Pre-emergence (flood test species), scale 0 to 10, 0 is no effect, 10 is complete control
  Ducksalad plant response rating: 0
cocklebur; [1]
  Cocklebur plant response rating: 0
cocklebur; [2]
  Cocklebur plant response rating: 0
cocklebur; [6]
  Cocklebur plant response rating: 0
cocklebur; Preemergence, Rate 62 g/ha
  Plant response rating, Cocklebur: 0
cocklebur; Preemergence, Rate 125 g/ha
  Plant response rating, Cocklebur: 0
cocklebur; [3]
  Cocklebur plant response rating: 0
cocklebur; [4]
  Cocklebur plant response rating: 0
cocklebur; [5]
  Cocklebur plant response rating: 0
pigweed; [1]
  Redroot pigweed plant response rating: 0
pigweed; [2]
  Redroot pigweed plant response rating: 0
pigweed; Preemergence, Rate 62 g/ha
  Plant response rating, Redroot pigweed: 0
pigweed; Preemergence, Rate 125 g/ha
  Plant response rating, Redroot pigweed: 0
pigweed; [3]
  Redroot pigweed plant response rating: 0
pigweed; [4]
  Redroot pigweed plant response rating: 0
pigweed; [5]
  Redroot pigweed plant response rating: 0
Sugar beet; [1]
  Sugarbeets plant response rating: 0
Sugar beet; [2]
  Sugarbeets plant response rating: 0
Sugar beet; Preemergence, Rate 62 g/ha
  Plant response rating, Sugarbeets: 0
Sugar beet; Preemergence, Rate 125 g/ha
  Plant response rating, Sugarbeets: 0
Sugar beet; [3]
  Sugarbeets plant response rating: 0
Sugar beet; [4]
  Sugarbeets plant response rating: 0
Sugar beet; [5]
  Sugarbeets plant response rating: 0
corn; [1]
  Corn plant response rating: 0
corn; [2]
  Corn plant response rating: 0
corn; [6]
  Corn plant response rating: 0
corn; Preemergence, Rate 62 g/ha
  Plant response rating, Corn: 0
corn; Preemergence, Rate 125 g/ha
  Plant response rating, Corn: 0
corn; [3]
  Corn plant response rating: 0
corn; [4]
  Corn plant response rating: 0
corn; [5]
  Corn plant response rating: 0
Giant foxtail; [1]
  Giant foxtail plant response rating: 0
Giant foxtail; [2]
  Giant foxtail plant response rating: 0
Giant foxtail; [6]
  Giant foxtail plant response rating: 0
Giant foxtail; Preemergence, Rate 62 g/ha
  Plant response rating, Giant foxtail: 0
Giant foxtail; Preemergence, Rate 125 g/ha
  Plant response rating, Giant foxtail: 0
Giant foxtail; [3]
  Giant foxtail plant response rating: 3
Giant foxtail; [4]
  Giant foxtail plant response rating: 0
Giant foxtail; [5]
  Giant foxtail plant response rating: 0
wheat; [1]
  Wheat plant response rating: 0
wheat; [2]
  Wheat plant response rating: 0
wheat; Preemergence, Rate 62 g/ha
  Plant response rating, Wheat: 0
wheat; Preemergence, Rate 125 g/ha
  Plant response rating, Wheat: 0
wheat; [3]
  Wheat plant response rating: 0
wheat; [4]
  Wheat plant response rating: 0
wheat; [5]
  Wheat plant response rating: 0
rape; [1]
  Rape plant response rating: 0
rape; [2]
  Rape plant response rating: 0
rape; Preemergence, Rate 62 g/ha
  Plant response rating, Rape: 0
rape; Preemergence, Rate 125 g/ha
  Plant response rating, Rape: 0
rape; [3]
  Rape plant response rating: 0
rape; [4]
  Rape plant response rating: 0
rape; [5]
  Rape plant response rating: 0
velvetleaf; [1]
  Velvetleaf plant response rating: 0
velvetleaf; [2]
  Velvetleaf plant response rating: 0
velvetleaf; Preemergence, Rate 62 g/ha
  Plant response rating, Velvetleaf: 0
velvetleaf; Preemergence, Rate 125 g/ha
  Plant response rating, Velvetleaf: 0
velvetleaf; [3]
  Velvetleaf plant response rating: 0
velvetleaf; [4]
  Velvetleaf plant response rating: 0
velvetleaf; [5]
  Velvetleaf plant response rating: 0
Surinam grass; [1]
  B. signalgrass plant response rating: 0
Surinam grass; Postemergence, Rate 250 g/ha, scale 0 to 10, 0 no effect, 10 complete control
  B. signalgrass plant response rating: 0
Surinam grass; [6]
  B. signalgrass plant response rating: 0
Surinam grass; Preemergence, Rate 62 g/ha
  Plant response rating, B. signalgrass: 0
Surinam grass; Preemergence, Rate 125 g/ha
  Plant response rating, B. signalgrass: 0
Surinam grass; [3]
  B. signalgrass plant response rating: 0
Surinam grass; [4]
  B. signalgrass plant response rating: 0
Surinam grass; [5]
  B. signalgrass plant response rating: 0
Purple nutsedge; [1]
  Nutsedge plant response rating: 0
Purple nutsedge; [2]
  Nutsedge plant response rating: 0
Purple nutsedge; Preemergence, Rate 62 g/ha
  Plant response rating, Nutsedge: 0
Purple nutsedge; Preemergence, Rate 125 g/ha
  Plant response rating, Nutsedge: 0
Purple nutsedge; [3]
  Nutsedge plant response rating: 0
Purple nutsedge; [4]
  Nutsedge plant response rating: 0
Purple nutsedge; [5]
  Nutsedge plant response rating: 0
soybean; [1]
  Soybean plant response rating: 0
soybean; [2]
  Soybean plant response rating: 0
soybean; Preemergence, Rate 62 g/ha
  Plant response rating, Soybean: 0
soybean; Preemergence, Rate 125 g/ha
  Plant response rating, Soybean: 0
soybean; [3]
  Soybean plant response rating: 0
soybean; [4]
  Soybean plant response rating: 0
soybean; [5]
  Soybean plant response rating: 0
